{
  "source": "patent US20230190866A1",
  "about": "“PEPTIDE FOR THE TREATMENT OF CYTOKINE STORM SYNDROME” (priority 2020, published 2023)",
  "key": {"[1]": {"tested_on": "acute respiratory distress syndrome in patients with Covid-19", "conditions": "ten treated Covid-19 patients"}, "[2]": {"conditions": "patients, pharmaceutical composition", "description": "The peptide identified as SEQ ID NO: 1 is obtained by chemical synthesis. Through experiments such as those described in the present invention, those immunological mechanisms induced by the peptide that contribute in the control of hyperinflammation can be evaluated."}},
  "note": "Ends that are not written are not given here.",
  "data": [
    {"sequence": "SIDLKDKYKNIGAKLVQLVANNTNEEA [peptide identified as SEQ ID NO: 1]", "values": [
      {"measurement": "symptoms of immunosuppression", "setting": "[1]", "result": "did not present any symptoms of immunosuppression"},
      {"measurement": "serious adverse events", "setting": "[2]", "result": "No serious adverse events were identified"},
      {"measurement": "tolerability", "setting": "[2]", "result": "well tolerated"}
    ]}
  ]
}
